Source: the NIST ThermoML archive (doi:10.1016/j.fluid.2006.01.008)

What was measured:
[1] = refractive index (Na D-line) (dimensionless); conditions: 298.15 K; 101.33 kPa; Liquid; Standard Abbe refractometry
[2] = 298.15 K, 101.33 kPa, Liquid
[3] = xn = mol fraction of the nth substance listed; conditions: 298.15 K, 101 kPa, Liquid; for viscosity: Capillary tube (Ostwald / Ubbelohde) method; for speed of sound: Sing-around technique in a fixed-path interferometer; for mass density: Vibrating tube method
[4] = refractive index (Na D-line) (dimensionless); xn = mol fraction of the nth substance listed; conditions: 298.15 K, 101 kPa, Liquid, Standard Abbe refractometry

CCCCCCCC[n+]1ccn(C)c1.F[B-](F)(F)F [1-methyl-3-octylimidazolium tetrafluoroborate]
Conditions | refractive index
[1] | 1.43422

[2]
Conditions | mass density [kg/m3] | speed of sound [m/s] | viscosity [mPa·s]
Capillary tube (Ostwald / Ubbelohde) method | – | – | 359.9
Sing-around technique in a fixed-path interferometer | – | 1491 | –
Vibrating tube method | 1105.3 | – | –

CCCCCCCC[n+]1ccn(C)c1.F[B-](F)(F)F [1-methyl-3-octylimidazolium tetrafluoroborate] + CC(C)O
Conditions | mass density, [3] [kg/m3] | refractive index, [4] | speed of sound, [3] [m/s] | viscosity, [3] [mPa·s]
x1 = 0.0459 | 826.83 | 1.38385 | 1170 | 2.956
x1 = 0.0892 | 862.39 | 1.39059 | 1198 | 3.955
x1 = 0.182 | 921.09 | 1.40147 | 1254 | 7.053
x1 = 0.2506 | 953.75 | 1.40743 | 1291 | 10.15
x1 = 0.2965 | 972 | 1.41077 | 1312 | 12.88
x1 = 0.3677 | 996.08 | 1.41503 | 1343 | 18.27
x1 = 0.4214 | 1011.52 | 1.41781 | 1362 | 23.79
x1 = 0.4798 | 1026.24 | 1.42048 | 1381 | 31.66
x1 = 0.5028 | 1031.53 | 1.42134 | 1387 | 35.48
x1 = 0.6166 | 1054.39 | 1.42547 | 1416 | 61.95
x1 = 0.7089 | 1069.7 | 1.42817 | 1437 | 96.3
x1 = 0.7558 | 1076.59 | 1.42938 | 1446 | 120.5
x1 = 0.8697 | 1091.33 | 1.43182 | 1467 | 202.6

CCCCCCCC[n+]1ccn(C)c1.F[B-](F)(F)F [1-methyl-3-octylimidazolium tetrafluoroborate] + CCCO
Conditions | mass density, [3] [kg/m3] | refractive index, [4] | speed of sound, [3] [m/s] | viscosity, [3] [mPa·s]
x1 = 0.0473 | 844.63 | 1.39108 | 1232 | 2.789
x1 = 0.0982 | 883.64 | 1.3978 | 1256 | 3.942
x1 = 0.2034 | 943.18 | 1.40783 | 1306 | 7.531
x1 = 0.241 | 959.69 | 1.41061 | 1321 | 9.169
x1 = 0.2958 | 980.53 | 1.41405 | 1343 | 12.21
x1 = 0.4007 | 1012.5 | 1.41928 | 1377 | 20.65
x1 = 0.4355 | 1021.38 | 1.42071 | 1387 | 24.52
x1 = 0.4988 | 1035.79 | 1.42301 | 1403 | 33.31
x1 = 0.5506 | 1046.19 | 1.42472 | 1414 | 43.39
x1 = 0.6165 | 1057.95 | 1.42671 | 1428 | 59.9
x1 = 0.6778 | 1067.63 | 1.42832 | 1439 | 79.52
x1 = 0.7828 | 1081.97 | 1.43069 | 1457 | 130.9
x1 = 0.9118 | 1096.63 | 1.43297 | 1477 | 238.4
